Measurements taken from patent US9220799B2, “Bactericidal agent composition” (SUNSTAR ENGINEERING INC., priority 2012, dated 2015).

Tests used:
[1] = test system: Streptococcus mutans (ATCC25175) biofilm; experiment: Bactericidal effect on cariogenic bacteria-formed biofilms, surviving cells in the biofilm; assay type: cell-based; conditions: Example 3, 37°C, 20 min
Procedure: Either water containing oxygen-filled ultrafine bubbles prepared as described above or purified water was used to dilute povidone iodine to condition the same to 1.0 mg/mL and 10 mg/mL.
Streptococcus mutans (ATCC25175) was grown in a Tryptic soy Broth supplemented with 0.5% yeast extract (the resulting medium is hereinafter referred to as TSBY medium) at 37° C. until the OD660 was between 0.6 and 0.8 (10^8 cells/mL); the product was used as a test bacterial liquid.
A TSBY medium (plus 1% sucrose) placed in a test tube in a volume of 4950 μL was inoculated with 50 μL of the test bacterial liquid and was cultured at 37° C. for 18 hours to form a biofilm.
From the test tube in which the biofilm was formed, the culture broth was removed by means of an aspirator and the biofilm was washed with 5 mL of an added PBS. After removing the PBS, 5 mL of the test liquid was treated for reaction as it was shaken with a shaking machine (37° C.×20 min). After the 20-min reaction, 5 mL of 0.4% (w/v) sodium thiosulfate in solution was added into the test tube so as to inactivate the bactericidal agent. Using a sonicator, the biofilm was detached from the inner surfaces of the test tube and dispersed with a vortex mixer thereby prepare a sample liquid for cell count; the number of surviving cells in the biofilm was then counted.
The sample liquids for cell count were diluted with a buffer solution; after culture in an MS agar medium (37° C.×36-48 hours), the number of colonies formed was counted to determine the number of surviving cells in the biofilms.
To obtain those results, the test was replicated in 5 runs (n=5).

[2] = test system: Pseudomonas aeruginosa NBRC13275; experiment: Bactericidal test on carriers with adhered Pseudomonas aeruginosa and dried organic substance (AOAC Official Method 964.02), surviving cell count; Examples 1, 4, 5; assay type: cell-based
Procedure: The test was conducted in accordance with AOAC Official Method 964.02 Testing Disinfectants against Pseudomonas aeruginosa.
The water prepared as described above to contain oxygen-filled ultrafine bubbles or the purified water of the Japanese Pharmacopoeia was used to dilute povidone iodine such that it was conditioned to 100 mg/L.
A cryopreserved bacterial strain (Pseudomonas aeruginosa NBRC13275) was grown in a tryptic soy agar (Difco; hereinafter referred to as TSA medium) at 36±1° C. for 18-24 hours. The grown cells were transplanted into a tryptic soy broth (Difco; hereinafter referred to as TSB medium) where they were cultured at 36±1° C. for 18-24 hours. The liquids of the thus cultured cells were conditioned with a TSB medium to an approximate value of 10^6 CFU/mL and the resulting liquids were used as test bacterial liquids.
A sterile bioassay cup (stainless steel Penicillin Cup 441-01 made by Sogo Rikagagu glass; hereinafter designated as a carrier) was placed in a 100-mL beaker, into which test bacterial liquids were poured in such amounts that the carrier would be completely immersed (ca. 30-40 mL). After allowing the beaker to stand for 10-15 minutes, the carrier was transferred onto a Petri dish with sterile filter paper spread on the bottom and by allowing the Petri dish to stand at 36±1° C. for 40±2 minutes, the bacterial cells and the organic substance derived from the mediums were dried and adhered to the carrier.
The test liquids preliminarily held at 25±2° C. were each dispensed in 10 mL into centrifugal tubes having a capacity of 50 mL; using a hook of platinum wire, the carriers to which the test bacterium adhered were put into the centrifugal tubes, one for each, and allowed to act at 25±2° C. for 20 minutes. Thereafter, the carriers were transferred into centrifugal tubes containing 10 mL of an inactivator SCDLP medium (Eiken Chemical Co., Ltd.), one for each, so as to inactivate the bactericidal component in the test liquid adhering to the carrier. The carriers were then treated with a sonicator at 20±2° C. for 5 minutes to wash off the test bacterium; the test liquids were agitated for an additional minute with a vortex mixer to prepare sample liquids for cell count and the number of surviving cells was counted. A control was prepared by the same procedure as described above, except that the test liquids were replaced by sterile physiological saline.
The sample liquids for cell count (stock liquids) were serially diluted 10-fold with sterile physiological saline; the sample liquids or the series of dilutions, each weighing a volume of 1 mL, were transferred aseptically into Petri dishes and, after mixing with 20 mL of a TSA medium, they were solidified and cultured at 36±1° C. for 48 hours. Thereafter, colonies growing on the medium were counted to determine the number of surviving cells per carrier (lower limit for quantification: 10 CFU/carrier).
To obtain those results, the test was replicated in five runs (n=5) and after eliminating minimum and maximum values, an averaged cell count for n=3 was indicated as a logarithmic value.
An experiment was conducted by the same method as in Example 1, except for the following points: water containing oxygen-filled ultrafine bubbles prepared as described above or purified water was used to dilute povidone iodine such that it was conditioned to 100 mg/L; in addition, the most frequent particle density of the water containing ultrafine bubbles were adjusted to orders of 10^4, 10^5, 10^6, and 10^8 per mL.
An experiment was conducted by the same method as in Example 1, except that water containing atmospheric air- or C3F8-filled ultrafine bubbles prepared as described above or purified water was used to dilute povidone iodine such that it was conditioned to 100 mg/L.

[3] = povidone iodine concentration 1 (table head mg/L; text 1.0 mg/mL) conditioned with water (purified water)
[4] = povidone iodine concentration 1 (table head mg/L; text 1.0 mg/mL) conditioned with water containing oxygen-filled ultrafine bubbles (100 nm; 2.0x10^7, total 1.6x10^9 particles/ml)
[5] = povidone iodine concentration 10 (table head mg/L; text 10 mg/mL) conditioned with water (purified water)
[6] = povidone iodine concentration 10 (table head mg/L; text 10 mg/mL) conditioned with water containing oxygen-filled ultrafine bubbles (100 nm; 2.0x10^7, total 1.6x10^9 particles/ml)
[7] = Example 1, povidone iodine 100 mg/L conditioned with water (purified water), 25°C, 20 min
[8] = Example 1, povidone iodine 100 mg/L conditioned with water containing oxygen-filled ultrafine bubbles (91 nm; 3.1x10^8, total 2.3x10^10 particles/ml), 25°C, 20 min
[9] = Example 4, povidone iodine 100 mg/L conditioned with water (purified water)
[10] = Example 4, povidone iodine 100 mg/L, water containing oxygen-filled ultrafine bubbles, 81 nm, most frequent particle density 7.2 × 10^4, total 4.2 × 10^6 particles/ml
[11] = Example 4, povidone iodine 100 mg/L, water containing oxygen-filled ultrafine bubbles, 81 nm, most frequent particle density 7.2 × 10^5, total 4.2 × 10^7 particles/ml
[12] = Example 4, povidone iodine 100 mg/L, water containing oxygen-filled ultrafine bubbles, 81 nm, most frequent particle density 7.2 × 10^6, total 4.2 × 10^8 particles/ml
[13] = Example 4, povidone iodine 100 mg/L, water containing oxygen-filled ultrafine bubbles, 81 nm, most frequent particle density 7.2 × 10^8, total 4.2 × 10^10 particles/ml
[14] = Example 5, povidone iodine 100 mg/L conditioned with water (purified water)
[15] = Example 5, povidone iodine 100 mg/L, water containing C3F8-filled ultrafine bubbles (76 nm; 2.7x10^8, total 1.3x10^10 particles/ml)
[16] = Example 5, povidone iodine 100 mg/L, water containing atmospheric air-filled ultrafine bubbles (75 nm; 5.7x10^8, total 4.6x10^10 particles/ml)

For povidone iodine, the “Cell count CFU average” value [1, 3] was 616.6 CFU, the “Cell count CFU n1” value [1, 3] was 612 CFU and the “Cell count CFU n2” value [1, 3] was 439 CFU. For the same substance, the “Cell count CFU n3” value [1, 3] was 1050 CFU, the “Cell count CFU n4” value [1, 3] was 386 CFU and the “Cell count CFU n5” value [1, 3] was 596 CFU. For the same substance, the “Cell count CFU average” value [1, 4] was 149.2 CFU, the “Cell count CFU n1” value [1, 4] was 250 CFU and the “Cell count CFU n2” value [1, 4] was 35 CFU. For the same substance, the “Cell count CFU n3” value [1, 4] was 178 CFU, the “Cell count CFU n4” value [1, 4] was 150 CFU and the “Cell count CFU n5” value [1, 4] was 133 CFU. The “Cell count CFU average” value [1, 5] was 9.2 CFU, the “Cell count CFU n1” value [1, 5] was 9 CFU and the “Cell count CFU n2” value [1, 5] was 22 CFU. The “Cell count CFU n3” value [1, 5] was 13 CFU, the “Cell count CFU n4” value [1, 5] was 0 CFU and the “Cell count CFU n5” value [1, 5] was 2 CFU. For the same substance, the “Cell count CFU average” value [1, 6] was 0 CFU, the “Cell count CFU n1” value [1, 6] was 0 CFU and the “Cell count CFU n2” value [1, 6] was 0 CFU. For the same substance, the “Cell count CFU n3” value [1, 6] was 0 CFU, the “Cell count CFU n4” value [1, 6] was 0 CFU and the “Cell count CFU n5” value [1, 6] was 0 CFU. The “Cell count CFU/carrier average” value [2, 7] was 8000 CFU/carrier, the “Cell count CFU/carrier n1” value [2, 7] was 23000 CFU/carrier and the “Cell count CFU/carrier n2” value [2, 7] was 19000 CFU/carrier. The “Cell count CFU/carrier n3” value [2, 7] was 26000 CFU/carrier, the “log value (averaged surviving cell count as logarithmic value)” value [2, 7] was 3.9 and the “Cell count CFU/carrier average” value [2, 8] was 23 CFU/carrier. For the same substance, the “Cell count CFU/carrier n1” value [2, 8] was 10 CFU/carrier, the “Cell count CFU/carrier n2” value [2, 8] was 10 CFU/carrier and the “Cell count CFU/carrier n3” value [2, 8] was 50 CFU/carrier. For the same substance, the “log value (averaged surviving cell count as logarithmic value)” value [2, 8] was 1.4, the “Cell count CFU/carrier average” value [2, 9] was 44000 CFU/carrier and the “Cell count CFU/carrier n1” value [2, 9] was 46000 CFU/carrier. The “Cell count CFU/carrier n2” value [2, 9] was 47000 CFU/carrier, the “Cell count CFU/carrier n3” value [2, 9] was 39000 CFU/carrier and the Log value [2, 9] was 4.6. For the same substance, the “Cell count CFU/carrier average” value [2, 10] was 5300 CFU/carrier, the “Cell count CFU/carrier n1” value [2, 10] was 5900 CFU/carrier and the “Cell count CFU/carrier n2” value [2, 10] was 2200 CFU/carrier. For the same substance, the “Cell count CFU/carrier n3” value [2, 10] was 7700 CFU/carrier, the Log value [2, 10] was 3.7 and the Observed bactericidal efficacy [2, 10] was “Δ”. For the same substance, the “Cell count CFU/carrier average” value [2, 11] was under 10 CFU/carrier, the “Cell count CFU/carrier n1” value [2, 11] was 4200 CFU/carrier and the “Cell count CFU/carrier n2” value [2, 11] was under 10 CFU/carrier. The “Cell count CFU/carrier n3” value [2, 11] was under 10 CFU/carrier, the Log value [2, 11] was 3.1 and the Observed bactericidal efficacy [2, 11] was “○”. The “Cell count CFU/carrier average” value [2, 12] was under 10 CFU/carrier, the “Cell count CFU/carrier n1” value [2, 12] was under 10 CFU/carrier and the “Cell count CFU/carrier n2” value [2, 12] was under 10 CFU/carrier. For the same substance, the “Cell count CFU/carrier n3” value [2, 12] was under 10 CFU/carrier, the Log value [2, 12] was under 1.0 and the Observed bactericidal efficacy [2, 12] was “○”. The “Cell count CFU/carrier average” value [2, 13] was under 10 CFU/carrier, the “Cell count CFU/carrier n1” value [2, 13] was under 10 CFU/carrier and the “Cell count CFU/carrier n2” value [2, 13] was under 10 CFU/carrier. For the same substance, the “Cell count CFU/carrier n3” value [2, 13] was under 10 CFU/carrier, the Log value [2, 13] was under 1.0 and the Observed bactericidal efficacy [2, 13] was “○”. The “Cell count CFU/carrier average” value [2, 14] was 4500 CFU/carrier, the “Cell count CFU/carrier n1” value [2, 14] was 3200 CFU/carrier and the “Cell count CFU/carrier n2” value [2, 14] was 1800 CFU/carrier. For the same substance, the “Cell count CFU/carrier n3” value [2, 14] was 8600 CFU/carrier, the Log value [2, 14] was 3.7 and the “Cell count CFU/carrier average” value [2, 15] was under 10 CFU/carrier. For the same substance, the “Cell count CFU/carrier n1” value [2, 15] was under 10 CFU/carrier, the “Cell count CFU/carrier n2” value [2, 15] was under 10 CFU/carrier and the “Cell count CFU/carrier n3” value [2, 15] was under 10 CFU/carrier. For the same substance, the Log value [2, 15] was 1.0, the “Cell count CFU/carrier average” value [2, 16] was 32 CFU/carrier and the “Cell count CFU/carrier n1” value [2, 16] was 10 CFU/carrier. The “Cell count CFU/carrier n2” value [2, 16] was 75 CFU/carrier, the “Cell count CFU/carrier n3” value [2, 16] was under 10 CFU/carrier and the Log value [2, 16] was 1.5.
